Laboratory results reported in patent US20050282743A1, “Molecular interactions in cells” (Arbor Vita Corporation, priority 2001, published 2005).
pKd: −log10 of the molar value. Like-named read-outs stand apart in the source and are kept apart here. Ends that are not written are not given here. Peptide text beside a SMILES is read from it. * marks the point of attachment. Biotin = O=C1N[C@H]2[C@H](CS[C@H]2CCCCC(=O)*)N1

Tests used:
Assay type in all cases: binding
[1] = molecular target: T1, PDZ protein (GST-PDZ fusion) (Homo sapiens, UniProt Q9NZN5); assay: G' assay (10 uM PL peptide), results of TABLE 7 and TABLE 12; settings: PDZ KIAA0382, PDZ Domain 1
T1 construct: made in house; host or cells: E. coli (DH5alpha, BL21 or JM109)
In short: (§1)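 Same steps as the G-zero format, apart from a peptide concentration of 10 uM in place of 20 uM in step 2. Amino-terminally biotinylated PL peptides bind GST-PDZ fusions, and retained peptide is quantified by 450 nm absorbance.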

[2] = molecular target: T2, PDZ protein (GST-PDZ fusion) (Homo sapiens, UniProt Q86UL8); assay: as above
T2 construct: made in house; host or cells: E. coli (DH5alpha, BL21 or JM109)
In short: as §1

[3] = molecular target: T3, PDZ protein (GST-PDZ fusion) (Homo sapiens, UniProt O14907); assay: as above; settings: PDZ TIP1, PDZ Domain 1
T3 construct: made in house; host or cells: E. coli (DH5alpha, BL21 or JM109)
T3 sequence (O14907 1-124): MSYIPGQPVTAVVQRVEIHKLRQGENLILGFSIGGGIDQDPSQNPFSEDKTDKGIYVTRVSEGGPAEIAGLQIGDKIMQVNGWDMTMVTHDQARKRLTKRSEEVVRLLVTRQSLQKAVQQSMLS
In short: as §1

[4] = molecular target: T4, PDZ protein (GST-PDZ fusion) (Homo sapiens, UniProt Q14160); assay: as above
T4 construct: made in house; host or cells: E. coli (DH5alpha, BL21 or JM109)
In short: as §1

[5] = molecular target: T5, PDZ protein (GST-PDZ fusion) (Homo sapiens, UniProt O15018); assay: as above
T5 construct: made in house; host or cells: E. coli (DH5alpha, BL21 or JM109)
In short: as §1

[6] = molecular target: T6, PDZ protein (GST-PDZ fusion) (Homo sapiens, UniProt P78352); assay: as above
T6 construct: made in house; host or cells: E. coli (DH5alpha, BL21 or JM109)
In short: as §1

[7] = molecular target: T7, PDZ protein (GST-PDZ fusion) (Homo sapiens, UniProt Q12959); assay: as above
T7 construct: made in house; host or cells: E. coli (DH5alpha, BL21 or JM109)
In short: as §1

[8] = molecular target: T8, PDZ protein (GST-PDZ fusion) (Homo sapiens, UniProt Q13796); assay: as above; settings: PDZ hAPXL, PDZ Domain 1
T8 construct: made in house; host or cells: E. coli (DH5alpha, BL21 or JM109)
In short: as §1

[9] = molecular target: T9, PDZ protein (GST-PDZ fusion) (Homo sapiens, UniProt Q8NI35); assay: as above; settings: PDZ INADL
T9 construct: made in house; host or cells: E. coli (DH5alpha, BL21 or JM109)
In short: as §1

[10] = molecular target: PDZ-domain polypeptide (GST/PDZ fusion protein); assay: Apparent affinity (Kd) by titration of PL peptide in the G assay; settings: read-out: Peptide Optimal Conc (Kd by titration of the PL peptide)
In short: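 A fixed concentration of GST/PDZ fusion protein, 5 ug/ml by default, was mixed in solution with increasing labeled PL peptide (e.g. 0.1 uM-1 mM). Reaction times ranged from 10 minutes to 2 days at 4-37° C. Complexes were separated from free peptide and detected via the label as in the G assay, apparent affinity coming from the saturating concentration.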

[11] = molecular target: T10, PDZ protein (GST-PDZ fusion) (Homo sapiens, UniProt Q9BYB0); assay: G' assay (10 uM PL peptide), results of TABLE 7 and TABLE 12; settings: PDZ SHANK3, PDZ Domain 1
T10 construct: made in house; host or cells: E. coli (DH5alpha, BL21 or JM109)
In short: as §1

[12] = PDZ Atrophin-1 Inter. Prot., PDZ Domain 5
[13] = PDZ atrophin-1 interacting Protein, PDZ Domain 3
[14] = PDZ atrophin-1 interacting Protein (Atrophin-1 Inter. Prot.), PDZ Domain 1

T5 sequence (O15018 whole entry, the tested form may be a part): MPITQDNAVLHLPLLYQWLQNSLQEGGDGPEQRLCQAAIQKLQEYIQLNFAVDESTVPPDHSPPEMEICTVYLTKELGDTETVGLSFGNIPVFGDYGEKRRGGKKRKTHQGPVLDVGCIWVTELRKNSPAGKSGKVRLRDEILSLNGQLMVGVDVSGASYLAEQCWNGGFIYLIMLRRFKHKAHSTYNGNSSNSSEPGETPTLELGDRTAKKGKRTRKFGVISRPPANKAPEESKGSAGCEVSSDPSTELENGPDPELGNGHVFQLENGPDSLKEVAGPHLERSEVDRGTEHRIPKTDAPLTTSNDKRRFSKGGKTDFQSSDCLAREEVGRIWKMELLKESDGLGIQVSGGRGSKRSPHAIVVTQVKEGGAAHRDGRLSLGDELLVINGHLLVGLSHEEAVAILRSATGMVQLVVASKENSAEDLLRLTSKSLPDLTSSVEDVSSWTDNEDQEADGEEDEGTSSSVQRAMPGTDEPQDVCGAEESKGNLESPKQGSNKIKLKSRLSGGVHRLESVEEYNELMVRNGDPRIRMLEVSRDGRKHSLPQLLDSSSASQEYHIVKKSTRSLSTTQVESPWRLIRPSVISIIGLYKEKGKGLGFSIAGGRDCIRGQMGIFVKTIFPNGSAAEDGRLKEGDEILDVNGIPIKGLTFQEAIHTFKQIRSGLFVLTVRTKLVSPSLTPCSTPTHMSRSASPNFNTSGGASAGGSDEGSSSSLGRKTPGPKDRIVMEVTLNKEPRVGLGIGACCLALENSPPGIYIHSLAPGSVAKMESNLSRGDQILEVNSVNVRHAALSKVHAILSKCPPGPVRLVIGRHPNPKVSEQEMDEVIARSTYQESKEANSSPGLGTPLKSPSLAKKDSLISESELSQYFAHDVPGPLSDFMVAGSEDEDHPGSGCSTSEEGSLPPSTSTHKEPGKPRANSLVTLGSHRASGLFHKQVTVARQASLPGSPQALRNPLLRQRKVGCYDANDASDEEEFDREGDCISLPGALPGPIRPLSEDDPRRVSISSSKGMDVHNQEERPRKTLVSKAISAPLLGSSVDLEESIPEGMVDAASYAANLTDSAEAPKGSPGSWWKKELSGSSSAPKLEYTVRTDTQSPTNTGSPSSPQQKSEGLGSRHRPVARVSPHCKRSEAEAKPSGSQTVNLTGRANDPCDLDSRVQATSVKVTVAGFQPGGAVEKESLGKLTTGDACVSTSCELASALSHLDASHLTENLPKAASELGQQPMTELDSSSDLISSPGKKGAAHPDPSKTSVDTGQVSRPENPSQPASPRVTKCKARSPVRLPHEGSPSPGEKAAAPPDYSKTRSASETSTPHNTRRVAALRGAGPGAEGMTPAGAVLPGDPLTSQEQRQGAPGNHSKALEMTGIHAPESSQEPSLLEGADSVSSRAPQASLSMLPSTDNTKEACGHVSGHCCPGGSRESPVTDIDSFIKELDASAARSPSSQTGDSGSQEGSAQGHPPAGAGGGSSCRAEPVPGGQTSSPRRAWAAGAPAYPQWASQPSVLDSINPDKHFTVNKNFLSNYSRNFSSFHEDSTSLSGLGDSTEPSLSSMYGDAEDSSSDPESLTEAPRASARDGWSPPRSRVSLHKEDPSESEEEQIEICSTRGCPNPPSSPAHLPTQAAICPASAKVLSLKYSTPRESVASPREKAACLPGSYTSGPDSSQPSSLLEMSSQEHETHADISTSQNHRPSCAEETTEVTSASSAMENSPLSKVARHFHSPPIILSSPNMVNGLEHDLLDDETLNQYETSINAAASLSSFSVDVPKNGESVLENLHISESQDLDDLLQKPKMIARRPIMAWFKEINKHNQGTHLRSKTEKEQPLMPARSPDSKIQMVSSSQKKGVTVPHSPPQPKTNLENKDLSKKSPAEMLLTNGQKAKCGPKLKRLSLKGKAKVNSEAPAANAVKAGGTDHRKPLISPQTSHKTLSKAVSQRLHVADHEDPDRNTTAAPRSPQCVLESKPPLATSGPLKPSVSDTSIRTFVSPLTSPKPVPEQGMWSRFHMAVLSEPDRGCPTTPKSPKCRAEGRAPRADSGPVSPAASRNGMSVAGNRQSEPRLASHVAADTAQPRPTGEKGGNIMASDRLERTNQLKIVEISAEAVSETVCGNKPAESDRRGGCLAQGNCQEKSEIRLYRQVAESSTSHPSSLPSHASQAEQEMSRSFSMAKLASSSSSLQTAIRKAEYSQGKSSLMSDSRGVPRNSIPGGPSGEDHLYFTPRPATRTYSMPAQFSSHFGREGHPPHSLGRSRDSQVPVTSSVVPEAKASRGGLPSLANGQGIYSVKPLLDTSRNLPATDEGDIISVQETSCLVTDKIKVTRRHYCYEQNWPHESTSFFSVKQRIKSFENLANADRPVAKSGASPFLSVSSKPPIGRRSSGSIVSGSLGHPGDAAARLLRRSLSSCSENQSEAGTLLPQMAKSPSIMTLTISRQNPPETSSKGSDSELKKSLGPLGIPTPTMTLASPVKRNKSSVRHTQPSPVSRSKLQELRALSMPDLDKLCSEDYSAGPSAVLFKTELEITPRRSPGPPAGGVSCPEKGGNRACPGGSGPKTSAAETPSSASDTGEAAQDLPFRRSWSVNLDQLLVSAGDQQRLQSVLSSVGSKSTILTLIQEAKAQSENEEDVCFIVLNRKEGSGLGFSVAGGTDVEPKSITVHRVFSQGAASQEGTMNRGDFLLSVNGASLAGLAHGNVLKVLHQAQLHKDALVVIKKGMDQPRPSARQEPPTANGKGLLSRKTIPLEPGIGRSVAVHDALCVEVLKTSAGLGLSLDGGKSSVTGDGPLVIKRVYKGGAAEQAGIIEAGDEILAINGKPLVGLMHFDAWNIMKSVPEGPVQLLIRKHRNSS
T4 sequence (Q14160 whole entry, the tested form may be a part): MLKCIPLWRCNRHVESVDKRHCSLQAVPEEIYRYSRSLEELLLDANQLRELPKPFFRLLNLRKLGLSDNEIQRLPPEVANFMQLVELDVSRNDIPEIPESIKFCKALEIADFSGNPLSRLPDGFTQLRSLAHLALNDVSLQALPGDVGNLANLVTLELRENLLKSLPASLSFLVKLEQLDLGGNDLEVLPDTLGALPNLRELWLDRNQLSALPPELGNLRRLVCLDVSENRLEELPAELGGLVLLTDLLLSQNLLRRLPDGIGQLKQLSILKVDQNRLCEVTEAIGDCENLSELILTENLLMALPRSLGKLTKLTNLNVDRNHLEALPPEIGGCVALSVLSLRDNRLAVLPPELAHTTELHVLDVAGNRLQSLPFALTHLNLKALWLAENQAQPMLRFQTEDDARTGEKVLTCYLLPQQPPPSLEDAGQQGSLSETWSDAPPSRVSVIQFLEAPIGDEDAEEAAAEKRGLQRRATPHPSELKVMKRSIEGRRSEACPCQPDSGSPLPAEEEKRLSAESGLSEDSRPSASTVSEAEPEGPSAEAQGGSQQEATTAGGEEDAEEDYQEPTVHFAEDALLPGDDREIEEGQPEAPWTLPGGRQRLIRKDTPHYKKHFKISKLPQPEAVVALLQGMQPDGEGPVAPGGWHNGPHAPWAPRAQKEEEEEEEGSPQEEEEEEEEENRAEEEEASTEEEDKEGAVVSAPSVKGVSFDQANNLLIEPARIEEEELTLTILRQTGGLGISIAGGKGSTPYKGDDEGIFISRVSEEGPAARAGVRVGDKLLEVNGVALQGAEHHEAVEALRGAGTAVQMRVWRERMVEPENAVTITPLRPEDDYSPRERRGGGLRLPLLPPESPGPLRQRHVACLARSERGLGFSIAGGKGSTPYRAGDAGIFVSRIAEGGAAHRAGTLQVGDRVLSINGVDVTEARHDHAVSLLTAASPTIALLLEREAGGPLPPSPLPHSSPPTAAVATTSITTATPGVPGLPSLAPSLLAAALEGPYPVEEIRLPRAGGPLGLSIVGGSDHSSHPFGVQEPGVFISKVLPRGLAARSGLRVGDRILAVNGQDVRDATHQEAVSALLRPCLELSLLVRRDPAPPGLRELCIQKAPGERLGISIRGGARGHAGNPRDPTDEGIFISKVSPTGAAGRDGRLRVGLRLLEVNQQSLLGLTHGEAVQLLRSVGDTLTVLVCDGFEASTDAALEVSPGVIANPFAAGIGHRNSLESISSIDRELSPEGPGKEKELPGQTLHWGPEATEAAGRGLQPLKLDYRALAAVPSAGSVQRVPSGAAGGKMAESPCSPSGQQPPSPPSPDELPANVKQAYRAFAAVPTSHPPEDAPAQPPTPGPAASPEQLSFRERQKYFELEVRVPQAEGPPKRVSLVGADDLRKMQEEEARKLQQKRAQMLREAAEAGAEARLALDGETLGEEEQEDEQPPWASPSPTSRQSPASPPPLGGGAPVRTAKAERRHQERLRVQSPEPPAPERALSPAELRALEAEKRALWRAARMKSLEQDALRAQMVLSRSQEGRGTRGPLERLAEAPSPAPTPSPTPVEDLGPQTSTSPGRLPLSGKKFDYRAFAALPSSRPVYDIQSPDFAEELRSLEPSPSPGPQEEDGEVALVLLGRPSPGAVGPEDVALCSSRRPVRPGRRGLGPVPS

Molecule | Classification [1] | Classification [2, 12] | Classification [2, 13] | Classification [3] | Classification ([4]; PDZ KIAA0147, PDZ Domain 1) | Classification ([4]; PDZ KIAA0147, PDZ Domain 2) | Classification ([4]; PDZ KIAA0147, PDZ Domain 3) | Classification ([5]; PDZ AIPC, PDZ Domain 1) | Classification ([6]; PDZ PSD95, PDZ Domain 1) | Classification ([6]; PDZ PSD95, PDZ Domain 1, 2, 3) | Classification ([6]; PDZ PSD95, PDZ Domain 3) | Classification ([7]; PDZ DLG1, PDZ Domain 1) | Classification ([7]; PDZ DLG1, PDZ Domain 1, 2) | Classification ([7]; PDZ DLG1, PDZ Domain 2) | Classification [8] | Classification ([9]; PDZ Domain 3) | Classification ([9]; PDZ Domain 5) | Classification ([9]; PDZ Domain 8) | Classification [2, 14] | Classification [11] | further results
TQGFPGPATWRRISSLESEV | 1 (A450 nm 0-1) | 5 (A450 nm of 4 more than 2× repeated) | 2 (A450 nm 1-2) | 5 (A450 nm of 4 more than 2× repeated) | 5 (A450 nm of 4 more than 2× repeated) | 1 (A450 nm 0-1) | 1 (A450 nm 0-1) | 3 (A450 nm 2-3) | 5 (A450 nm of 4 more than 2× repeated) | 5 (A450 nm of 4 more than 2× repeated) | 2 (A450 nm 1-2) | 5 (A450 nm of 4 more than 2× repeated) | 5 (A450 nm of 4 more than 2× repeated) | 5 (A450 nm of 4 more than 2× repeated) | 1 (A450 nm 0-1) | 2 (A450 nm 1-2) | 1 (A450 nm 0-1) | 1 (A450 nm 0-1) | – | – | Classification ([2]; PDZ atrophin-1 interacting Protein, PDZ Domain 1): 5 (A450 nm of 4 more than 2× repeated)
CC[C@H](C)[C@H](NC(=O)[C@H](CCCCN)NC(=O)[C@@H](NC(=O)[C@H](CO)NC(=O)[C@@H]1CCCN1C(=O)[C@H](Cc1ccccc1)NC(=O)[C@@H](NC(=O)[C@@H](NC(=O)[C@H](CCCNC(=N)N)NC(=O)[C@H](CCC(=O)O)NC(=O)[C@H](CC(C)C)NC(=O)[C@H](CC(C)C)NC(=O)[C@H](CC(C)C)NC(=O)[C@@H](NC(=O)CNC(=O)[C@@H](NC(=O)CCCC[C@@H]1SC[C@@H]2NC(=O)N[C@@H]21)C(C)C)[C@@H](C)O)C(C)C)[C@@H](C)CC)C(C)C)C(=O)N[C@@H](C)C(=O)N[C@H](C(=O)N[C@@H](CC(C)C)C(=O)N[C@H](C(=O)O)C(C)C)[C@@H](C)O [Adenovirus E4 Type9] | – | – | – | – | – | – | – | – | – | – | – | – | – | – | – | – | – | – | – | – | pKd ([10]; PDZ BAI-1, PDZ Domain 2, Protein Optimal Conc 0.3): 7.70; pKd ([10]; PDZ BAI-1, PDZ Domain 3, Protein Optimal Conc 0.5): 7.12; pKd ([10]; PDZ BAI-1, PDZ Domain 4, Protein Optimal Conc 0.3): 7.00; pKd ([10]; PDZ HEMBA 1003117, PDZ Domain 1, Protein Optimal Conc 5): 6.52; Classification ([1]; PL peptide 10 uM): 1 (A450 nm 0-1); Classification ([2]; PDZ atrophin-1 interacting Protein, PDZ Domain 1, Protein Optimal Conc 0.5): 5 (A450 nm of 4 more than 2× repeated); Classification ([2]; PDZ atrophin-1 interacting Protein, PDZ Domain 3, Protein Optimal Conc 5): 4 (A450 nm 3-4); Classification ([5]; PDZ KIAA0300, PDZ Domain 1, PL peptide 10 uM): 1 (A450 nm 0-1); Classification ([6]; PDZ PSD95, PDZ Domain 1, 2, 3, PL peptide 10 uM): 5 (A450 nm of 4 more than 2× repeated); Classification ([6]; PDZ PSD95, PDZ Domain 1, Protein Optimal Conc 5): 4 (A450 nm 3-4); Classification ([7]; PDZ DLG1, PDZ Domain 1, 2, PL peptide 10 uM): 5 (A450 nm of 4 more than 2× repeated); Classification ([7]; PDZ DLG1, PDZ Domain 1, Protein Optimal Conc 0.5): 4 (A450 nm 3-4); Classification ([7]; PDZ DLG1, PDZ Domain 2, Protein Optimal Conc 0.3): 5 (A450 nm of 4 more than 2× repeated); Classification ([9]; PDZ Domain 8, PL peptide 10 uM): 2 (A450 nm 1-2)
CSCC[C@H](NC(=O)[C@H](C)NC(=O)[C@H](CCCNC(=N)N)NC(=O)CNC(=O)[C@@H](NC(=O)[C@H](Cc1c[nH]c2ccccc12)NC(=O)[C@H](CCCNC(=N)N)NC(=O)CNC(=O)CCCC[C@@H]1SC[C@@H]2NC(=O)N[C@@H]21)[C@@H](C)O)C(=O)N[C@@H](CO)C(=O)N[C@@H](C)C(=O)N[C@@H](Cc1c[nH]c2ccccc12)C(=O)N[C@@H](CCCCN)C(=O)N1CCC[C@H]1C(=O)N[C@H](C(=O)N[C@@H](CCCNC(=N)N)C(=O)N[C@@H](CCCNC(=N)N)C(=O)N[C@@H](CCC(=O)O)C(=O)N[C@H](C(=O)N[C@@H](CCC(=O)O)C(=O)N[C@H](C(=O)O)C(C)C)[C@@H](C)O)[C@@H](C)O [HPV E6 #35 (modified)] (Biotin-GRWTGRAMSAWKPTRRETEV-OH; C-terminus assumed) | 2 (A450 nm 1-2) | 4 (A450 nm 3-4) | 4 (A450 nm 3-4) | 5 (A450 nm of 4 more than 2× repeated) | 5 (A450 nm of 4 more than 2× repeated) | 5 (A450 nm of 4 more than 2× repeated) | 4 (A450 nm 3-4) | – | 5 (A450 nm of 4 more than 2× repeated) | 5 (A450 nm of 4 more than 2× repeated) | 5 (A450 nm of 4 more than 2× repeated) | 5 (A450 nm of 4 more than 2× repeated) | 5 (A450 nm of 4 more than 2× repeated) | 5 (A450 nm of 4 more than 2× repeated) | – | 1 (A450 nm 0-1) | 1 (A450 nm 0-1) | 4 (A450 nm 3-4) | 5 (A450 nm of 4 more than 2× repeated) | – | pKd ([10]; PDZ FLJ 00011, PDZ Domain 1): 6.46; Classification ([2]; PDZ atrophin-1 interacting Protein, PDZ Domain 2): 1 (A450 nm 0-1); Classification ([4]; PDZ KIAA0147, PDZ Domain 4): 1 (A450 nm 0-1); Classification ([5]; PDZ AIPC, PDZ Domain 1, PL peptide 10 uM, Protein Optimal Conc 5): 1 (A450 nm 0-1); Classification ([7]; PDZ DLG1, PDZ Domain 3): 3 (A450 nm 2-3)
PPATPSPRLALPAHHNATRL (Biotin-PPATPSPRLALPAHHNATRL) [Na+/Pi cotransporter 2] | – | – | – | – | – | – | – | – | – | – | – | – | – | – | 1 (A450 nm 0-1) | – | – | 1 (A450 nm 0-1) | – | 5 (A450 nm of 4 more than 2× repeated) | –
CC(C)C[C@H](NC(=O)[C@H](C)NC(=O)[C@@H](NC(=O)[C@H](CCC(=O)O)NC(=O)[C@H](CCCNC(=N)N)NC(=O)[C@H](CCCNC(=N)N)NC(=O)CNC(=O)[C@H](CCC(N)=O)NC(=O)[C@H](CC(C)C)NC(=O)[C@H](CCCNC(=N)N)NC(=O)CNC(=O)CNC(=O)[C@H](CCCNC(=N)N)NC(=O)[C@H](C)NC(=O)[C@H](CO)NC(=O)[C@H](CCCNC(=N)N)NC(=O)CNC(=O)CNC(=O)[C@H](C)NC(=O)[C@H](C)NC(=O)CCCC[C@@H]1SC[C@@H]2NC(=O)N[C@@H]21)[C@@H](C)O)C(=O)O [HPV E6 33 (modified)] (Biotin-AAGGRSARGGRLQGRRETAL-OH; C-terminus assumed) | – | 1 (A450 nm 0-1) | – | 5 (A450 nm of 4 more than 2× repeated) | 5 (A450 nm of 4 more than 2× repeated) | – | 2 (A450 nm 1-2) | 1 (A450 nm 0-1) | 2 (A450 nm 1-2) | 5 (A450 nm of 4 more than 2× repeated) | 5 (A450 nm of 4 more than 2× repeated) | 3 (A450 nm 2-3) | – | 5 (A450 nm of 4 more than 2× repeated) | 3 (A450 nm 2-3) | – | – | – | 4 (A450 nm 3-4) | 2 (A450 nm 1-2) | –
